The values that follow come from US20100286181A1, “PYRROLE DERIVATIVES WITH ANTIBACTERIAL ACTIVITY” (ASTRAZENECA AB, priority 2006, published 2010).

What is called IC50 is the midpoint of a concentration-inhibition curve.

Where only a bound is given, the exact number is not on record here.

In this assay the target is GyrB ATPase activity (E. coli GyrA, E. coli GyrB) (Escherichia coli, UniProt P0AES6). The experiment in a line: GyrB ATPase inhibition activity assay (ammonium molybdate/malachite green phosphate detection). In kind it is biochemical. Conditions: figure quoted may be an average of two or more results. On the procedure: Compounds may be tested for inhibition of GyrB ATPase activity using an ammonium molybdate/malachite green-based phosphate detection assay (Lanzetta, P. A., L. J. Alvarez, P. S. Reinach, and O. A. Candia, 1979, 100: 95-97). Assays can be performed in multiwell plates in 100 μl reactions containing: 50 mM HEPES buffer pH 7.5, 75 mM ammonium acetate, 5.5 mM magnesium chloride, 0.5 mM ethylenediaminetetraacetic acid, 5% glycerol, 1 mM 1,4-Dithio-DL-threitol, 200 nM bovine serum albumin, 5 μg/ml sheared salmon sperm DNA, 2.5 nM E. coli GyrA, 2.5 nM E. coli GyrB, 250 μM ATP, and compound in dimethylsulfoxide. Reactions can be quenched with 150 μl of ammonium molybdate/malachite green detection reagent containing 1.2 mM malachite green hydrochloride, 8.5 mM ammonium molybdate tetrahydrate, and 1 M hydrochloric acid.
Compounds of the Examples could be expected to have IC50 values of <200 μg/ml in one or both assays described herein above. For Example the following results were obtained in a GyrB ATPase inhibition activity assay substantially similar to the above wherein the figure quoted may be an average of two or more results
Compound `COC(=O)c1cnc(N2CCC(NC(=O)c3[nH]c(C)c(Cl)c3Cl)C3(C2)OCCCO3)s1` (stereo not drawn) [Example 6, Methyl 2-(11-{[(3,4-dichloro-5-methyl-1H-pyrrol-2-yl)carbonyl]amino}-1,5-dioxa-8-azaspiro[5.5]undec-8-yl)-1,3-thiazole-5-carboxylate] returned an IC50 of 79.1 nM.

`Cc1[nH]c(C(=O)N[C@H]2CCN(c3ncc(C(=O)O)s3)C[C@H]2n2ccnc2)c(Cl)c1Cl` (racemic) [Example 42, cis(±)2-[4-{[(3,4-Dichloro-5-methyl-1H-pyrrol-2-yl)carbonyl]amino}-3-(1H-imidazol-1-yl)piperidin-1-yl]-1,3-thiazole-5-carboxylic acid] returned an IC50 of less than 75.6 nM.

`CC(=O)c1nc(N2CCC(NC(=O)c3[nH]c(C)c(Cl)c3Cl)C3(C2)OCCCO3)sc1C(=O)O` (stereo not drawn) [Example 19, 4-Acetyl-2-(11-{[(3,4-dichloro-5-methyl-1H-pyrrol-2-yl)carbonyl]amino}-1,5-dioxa-8-azaspiro[5.5]undec-8-yl)-1,3-thiazole-5-carboxylic acid] yielded an IC50 of less than 9.77 nM.

The compound `CNC(=O)c1nc(N2CCC(NC(=O)c3[nH]c(C)c(Cl)c3Cl)C3(C2)OCCO3)sc1C(=O)O` (stereo not drawn) [Example 13, 2-(10-{[(3,4-Dichloro-5-methyl-1H-pyrrol-2-yl)carbonyl]amino}-1,4-dioxa-7-azaspiro[4.5]dec-7-yl)-4-[(methylamino)carbonyl]-1,3-thiazole-5-carboxylic acid] returned an IC50 of less than 69 nM.

For `CCOC(=O)c1sc(N2CCC(NC(=O)c3[nH]c(C)c(Cl)c3Cl)C3(C2)OCCO3)nc1C(=O)NCCOC` (stereo not drawn) [Example 5, Ethyl 2-(10-{[(3,4-dichloro-5-methyl-1H-pyrrol-2-yl)carbonyl]amino}-1,4-dioxa-7-azaspiro[4.5]dec-7-yl)-4-{[(2-methoxyethyl)amino]carbonyl}-1,3-thiazole-5-carboxylate], half-maximal inhibition (IC50) required 226 nM.

`COC(=O)c1cnc(N2CC[C@H](NC(=O)c3[nH]c(C)c(Cl)c3Cl)[C@H](n3cncn3)C2)s1` (racemic) [Example 39, cis(±)Methyl 2-[4-{[(3,4-dichloro-5-methyl-1H-pyrrol-2-yl)carbonyl]amino}-3-(1H-1,2,4-triazol-1-yl)piperidin-1-yl]-1,3-thiazole-5-carboxylate] registered a 50% inhibitory concentration (IC50) of 33.4 nM.

In the case of `COCCNC(=O)c1nc(N2CC[C@@H](NC(=O)c3[nH]c(C)c(Cl)c3Cl)[C@@H](n3cc(COC)nn3)C2)sc1C(=O)O` [Example 117], the half-inhibitory concentration (IC50) is less than 9.77 nM.

Regarding `COC(=O)c1cnc(N2CCC(NC(=O)c3[nH]c(C)c(Cl)c3Cl)C(OC)(OC)C2)s1` (stereo not drawn) [Example 10, Methyl 2-(4-{[(3,4-dichloro-5-methyl-1H-pyrrol-2-yl)carbonyl]amino}-3,3-dimethoxypiperidin-1-yl)-1,3-thiazole-5-carboxylate], the midpoint of inhibition, the IC50, lay at 169 nM.

The compound `COC(=O)c1cnc(N2CC[C@H](NC(=O)c3[nH]c(C)c(Cl)c3Cl)[C@H](n3cnc(Cl)n3)C2)s1` (racemic) [Example 40, cis(±)Methyl 2-(3-(3-chloro-1H-1,2,4-triazol-1-yl)-4-{[(3,4-dichloro-5-methyl-1H-pyrrol-2-yl)carbonyl]amino}piperidin-1-yl)-1,3-thiazole-5-carboxylate] had an IC50 of 51.9 nM.

In turn, `CONC(=O)c1cccc2nc(N3CC[C@H](NC(=O)c4[nH]c(C)c(Cl)c4Cl)[C@H](n4ccnc4)C3)sc12` (racemic) [Example 46, cis(±)2-[4-{[(3,4-Dichloro-5-methyl-1H-pyrrol-2-yl)carbonyl]amino}-3-(1H-imidazol-1-yl)piperidin-1-yl]-N-methoxy-1,3-benzothiazole-7-carboxamide] gave an IC50 of less than 9.77 nM.

With `COCC(COC)NC(=O)c1nc(N2CC[C@@H](NC(=O)c3[nH]c(C)c(Cl)c3Cl)[C@@H](n3cc(C)nn3)C2)sc1C(=O)O` [Example 105], the IC50 is less than 9.77 nM.

`COCCNC(=O)c1nc(N2CC[C@@H](NC(=O)c3[nH]c(C)c(Cl)c3Cl)[C@@H](n3cc(C)nn3)C2)sc1C(=O)O` [Example 104] came in with a concentration for half-maximal inhibition (IC50) of less than 9.77 nM.

For the compound `CCOC(=O)c1cccc2nc(N3CC[C@H](NC(=O)c4[nH]c(C)c(Cl)c4Cl)[C@H](n4ccnc4)C3)sc12` (racemic) [Example 41, cis(±)Ethyl 2-[4-{[(3,4-dichloro-5-methyl-1H-pyrrol-2-yl)carbonyl]amino}-3-(1H-imidazol-1-yl)piperidin-1-yl]-1,3-benzothiazole-7-carboxy late], the half-maximal inhibitory concentration (IC50) stood at 53.4 nM.

Turning to `Cc1cn([C@@H]2CN(c3ncc(C(=O)O)s3)CC[C@@H]2NC(=O)c2[nH]c(C)c(Cl)c2Cl)nn1` (racemic) [Example 122, cis(±)2-[4-{[(3,4-Dichloro-5-methyl-1H-pyrrol-2-yl)carbonyl]amino}-3-(4-methyl-1H-1,2,3-triazol-1-yl)piperidin-1-yl]-1,3-thiazole-5-carboxylic acid], the 50% inhibitory concentration (IC50) is less than 9.77 nM.

`COCCNC(=O)c1nc(N2CC[C@@H](NC(=O)c3[nH]c(C)c(Cl)c3Cl)[C@@H](n3cc(Cl)nn3)C2)sc1C(=O)O` [Example 108, 2-((3S,4R)-3-(4-Chloro-1H-1,2,3-triazol-1-yl)-4-{[(3,4-dichloro-5-methyl-1H-pyrrol-2-yl)carbonyl]amino}piperidin-1-yl)-4-{[(2-methoxyethyl)amino]carbonyl}-1,3-thiazole-5-carboxylic acid] came in with an IC50 of less than 9.77 nM.

In turn, `CNC(=O)c1nc(N2CCC(NC(=O)c3[nH]c(C)c(Cl)c3Cl)C3(C2)OCCO3)sc1C(=O)OC(C)C` (stereo not drawn) [Example 3, Isopropyl 2-(10-{[(3,4-dichloro-5-methyl-1H-pyrrol-2-yl)carbonyl]amino}-1,4-dioxa-7-azaspiro[4.5]dec-7-yl)-4-[(methylamino)carbonyl]-1,3-thiazole-5-carboxylate] came in with an IC50 of 270 nM.

Compound `CNC(=O)c1nc(N2CCC(NC(=O)c3[nH]c(C)c(Cl)c3Cl)/C(=N/OC)C2)sc1C(=O)O` (stereo not drawn) [Example 26, 2-[(3E)-4-{[(3,4-Dichloro-5-methyl-1H-pyrrol-2-yl)carbonyl]amino}-3-(methoxyimino)piperidin-1-yl]-4-[(methylamino)carbonyl]-1,3-thiazole-5-carboxylic acid] showed an IC50 of less than 9.77 nM.

The compound `COC1COC2(CN(c3ncc(C(=O)O)s3)CCC2NC(=O)c2[nH]c(C)c(Cl)c2Cl)OC1` [Example 52, 2-((rel-3R,6r,11R)-11-{[(3,4-Dichloro-5-methyl-1H-pyrrol-2-yl)carbonyl]amino}-3-methoxy-1,5-dioxa-8-azaspiro[5.5]undec-8-yl)-1,3-thiazole-5-carboxylic acid] gave an IC50 of less than 9.77 nM.

`COCC(COC)NC(=O)c1nc(N2CC[C@@H](NC(=O)c3[nH]c(C)c(Cl)c3Cl)[C@@H](n3cc(CO)nn3)C2)sc1C(=O)O` [Example 114] displayed an IC50 of less than 9.77 nM.

`CCOC(=O)c1sc(N2CCC(NC(=O)c3[nH]c(C)c(Cl)c3Cl)/C(=N/OC)C2)nc1C(=O)NCCOC` (stereo not drawn) [Example 33, Ethyl 2-[(3E)-4-{[(3,4-dichloro-5-methyl-1H-pyrrol-2-yl)carbonyl]amino}-3-(methoxyimino)piperidin-1-yl]-4-{[(2-methoxyethyl)amino]carbonyl}-1,3-thiazole-5-carboxylate] registered an IC50 of 36.9 nM.

`Cc1[nH]c(C(=O)N[C@@H]2CCN(c3nc4cccc(C(=O)O)c4s3)C[C@@H]2n2ccnn2)c(Cl)c1Cl` [Example 124, 2-[(3S,4R)-4-{[(3,4-Dichloro-5-methyl-1H-pyrrol-2-yl)carbonyl]amino}-3-(1H-1,2,3-triazol-1-yl)piperidin-1-yl]-1,3-benzothiazole-7-carboxylic acid] gave an IC50 of less than 9.77 nM.
